Data on eight compounds can be found in US6362174B1, “Reduced dipeptide analogues as calcium channel antagonitsts” (Warner-Lambert Company, priority 1998, dated 2002).

Structures are written as SMILES. Structures can show the parent of a compound that is named as a salt.

One data set concerns DBA/2 mice. Put plainly: Audiogenic seizure model in DBA/2 mice. It is filed as in vivo. The following applies: for protection: 30 mg/kg, 15 minutes posttreatment time. On the procedure:
Audiogenic Seizure Model in DBA/2 Mice
Compounds of the present invention were dissolved in water using 10% (weight/volume) Emulphor (GAF Corp., Wayne, N.J.) surfactant. Substances were administered by intravenous injection into the retro-orbital venous sinus. All testing was performed 15 minutes or 45 minutes after drug injection. All the male mice, 3 to 4 weeks old, were obtained from Jackson Laboratories, Bar Harbour, Me. Immediately before anticonvulsant testing, mice were placed upon a wire mesh, 4 inches square suspended from a steel rod. […] Any mouse falling from the wire mesh was scored as ataxic.
Mice were placed into an enclosed acrylic plastic chamber (21 cm height, approximately 30 cm diameter) with a high-frequency speaker (4 cm diameter) in the center of the top lid. An audio signal generator (Protek model B-810) was used to produce a continuous sinusoidal tone that was swept linearly in frequency between 8 kHz and 16 kHz once each 10 msec. The average sound pressure level (SPL) during stimulation was approximately 100 dB at the floor of the chamber. Mice were placed within the chamber and allowed to acclimatize for 1 minute. DBA/2 mice in the vehicle-treated group responded to the sound stimulus (applied until tonic extension occurred, or for a maximum of 60 seconds) with a characteristic seizure sequence consisting of wild running followed by clonic seizures, and later by tonic extension, and finally by respiratory arrest and death in 80% or more of the mice. In vehicle-treated mice, the entire sequence of seizures to respiratory arrest lasts approximately 15 to 20 seconds.
The incidence of all the seizure phases in the drug-treated and vehicle-treated mice was recorded, and the occurrence of tonic seizures were used for calculating anticonvulsant ED values by probit analysis. Mice were used only once for testing at each time and dose point.

The next data set deals with T1, N-type Ca2+ channel (Homo sapiens, UniProt Q00975).
T1 construct: host or cells: IMR-32 human neuroblastoma cells, differentiated with dibutyryl cAMP and bromodeoxyuridine
T1 sequence (Q00975 whole entry): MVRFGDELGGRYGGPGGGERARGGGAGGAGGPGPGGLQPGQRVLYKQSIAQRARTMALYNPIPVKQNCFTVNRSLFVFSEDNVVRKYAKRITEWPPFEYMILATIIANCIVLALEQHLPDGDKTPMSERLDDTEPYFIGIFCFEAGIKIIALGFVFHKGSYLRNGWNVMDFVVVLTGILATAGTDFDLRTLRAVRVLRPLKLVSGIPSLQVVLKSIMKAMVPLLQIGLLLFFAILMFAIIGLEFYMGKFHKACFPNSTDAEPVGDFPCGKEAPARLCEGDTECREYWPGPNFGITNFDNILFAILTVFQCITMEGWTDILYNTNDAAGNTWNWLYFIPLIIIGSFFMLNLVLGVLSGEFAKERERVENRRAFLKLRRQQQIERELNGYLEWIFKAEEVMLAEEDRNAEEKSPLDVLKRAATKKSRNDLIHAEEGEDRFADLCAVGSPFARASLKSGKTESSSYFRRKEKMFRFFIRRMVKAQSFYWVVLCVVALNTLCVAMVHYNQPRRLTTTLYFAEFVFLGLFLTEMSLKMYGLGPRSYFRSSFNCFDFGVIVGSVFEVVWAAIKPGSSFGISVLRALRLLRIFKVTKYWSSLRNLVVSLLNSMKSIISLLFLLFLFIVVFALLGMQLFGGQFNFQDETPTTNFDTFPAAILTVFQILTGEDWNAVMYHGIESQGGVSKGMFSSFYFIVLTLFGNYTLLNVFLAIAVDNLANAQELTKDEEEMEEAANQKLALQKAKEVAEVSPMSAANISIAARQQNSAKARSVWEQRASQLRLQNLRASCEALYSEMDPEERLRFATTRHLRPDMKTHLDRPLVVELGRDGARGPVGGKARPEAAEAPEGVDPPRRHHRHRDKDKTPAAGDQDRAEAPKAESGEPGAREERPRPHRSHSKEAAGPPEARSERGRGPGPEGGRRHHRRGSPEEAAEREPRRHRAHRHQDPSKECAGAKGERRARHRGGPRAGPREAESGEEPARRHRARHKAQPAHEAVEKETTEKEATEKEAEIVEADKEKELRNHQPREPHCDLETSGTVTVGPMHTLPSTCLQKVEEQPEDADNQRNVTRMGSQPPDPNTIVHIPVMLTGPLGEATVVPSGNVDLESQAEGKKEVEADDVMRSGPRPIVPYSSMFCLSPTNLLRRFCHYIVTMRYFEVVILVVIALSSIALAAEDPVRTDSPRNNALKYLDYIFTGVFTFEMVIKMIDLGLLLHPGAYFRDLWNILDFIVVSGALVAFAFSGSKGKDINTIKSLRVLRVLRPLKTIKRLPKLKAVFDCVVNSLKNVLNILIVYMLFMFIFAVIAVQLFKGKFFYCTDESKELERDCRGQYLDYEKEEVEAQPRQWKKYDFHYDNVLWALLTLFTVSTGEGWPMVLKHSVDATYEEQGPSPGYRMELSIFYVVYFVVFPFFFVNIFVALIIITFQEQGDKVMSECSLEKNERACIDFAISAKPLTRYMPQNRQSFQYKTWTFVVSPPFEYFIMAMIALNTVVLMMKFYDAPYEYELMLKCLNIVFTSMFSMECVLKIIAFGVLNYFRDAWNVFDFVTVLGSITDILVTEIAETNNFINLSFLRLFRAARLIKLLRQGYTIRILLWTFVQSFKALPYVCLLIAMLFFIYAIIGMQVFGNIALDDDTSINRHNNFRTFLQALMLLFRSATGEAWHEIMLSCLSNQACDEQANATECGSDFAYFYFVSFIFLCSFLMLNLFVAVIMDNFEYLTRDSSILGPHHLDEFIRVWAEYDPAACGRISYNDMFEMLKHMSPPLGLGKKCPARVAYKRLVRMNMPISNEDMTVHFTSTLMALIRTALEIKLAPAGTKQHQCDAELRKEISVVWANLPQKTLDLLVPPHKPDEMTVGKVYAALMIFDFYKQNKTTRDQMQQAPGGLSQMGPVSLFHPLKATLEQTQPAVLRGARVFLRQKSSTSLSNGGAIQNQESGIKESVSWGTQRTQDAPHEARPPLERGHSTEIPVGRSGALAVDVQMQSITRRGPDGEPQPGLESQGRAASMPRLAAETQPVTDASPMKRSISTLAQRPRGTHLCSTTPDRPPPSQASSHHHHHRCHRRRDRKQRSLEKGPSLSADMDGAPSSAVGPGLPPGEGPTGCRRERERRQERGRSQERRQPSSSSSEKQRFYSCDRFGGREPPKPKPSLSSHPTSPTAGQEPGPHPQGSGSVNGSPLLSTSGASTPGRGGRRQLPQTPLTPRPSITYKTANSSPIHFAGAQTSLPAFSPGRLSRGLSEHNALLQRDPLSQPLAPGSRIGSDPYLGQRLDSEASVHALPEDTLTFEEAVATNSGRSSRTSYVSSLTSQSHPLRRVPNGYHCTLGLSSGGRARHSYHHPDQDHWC
T1 sequence (Q02641 whole entry partner): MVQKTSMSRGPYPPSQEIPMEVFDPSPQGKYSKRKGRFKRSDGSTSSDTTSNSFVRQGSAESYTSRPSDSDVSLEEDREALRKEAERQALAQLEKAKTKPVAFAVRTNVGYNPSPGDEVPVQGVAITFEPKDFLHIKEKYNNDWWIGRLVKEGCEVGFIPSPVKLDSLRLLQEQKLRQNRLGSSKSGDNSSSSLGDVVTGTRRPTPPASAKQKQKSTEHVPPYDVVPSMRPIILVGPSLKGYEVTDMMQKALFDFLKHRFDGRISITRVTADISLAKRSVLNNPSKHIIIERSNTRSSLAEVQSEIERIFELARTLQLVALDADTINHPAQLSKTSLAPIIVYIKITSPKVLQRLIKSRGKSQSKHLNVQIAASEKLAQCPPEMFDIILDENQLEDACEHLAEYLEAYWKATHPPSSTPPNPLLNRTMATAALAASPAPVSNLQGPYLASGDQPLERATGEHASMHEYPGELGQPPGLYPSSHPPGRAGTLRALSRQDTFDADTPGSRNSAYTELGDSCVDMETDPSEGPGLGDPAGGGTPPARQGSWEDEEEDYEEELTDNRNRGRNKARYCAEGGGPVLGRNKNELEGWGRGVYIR
T1 sequence (P54289 25-956 partner limits assumed): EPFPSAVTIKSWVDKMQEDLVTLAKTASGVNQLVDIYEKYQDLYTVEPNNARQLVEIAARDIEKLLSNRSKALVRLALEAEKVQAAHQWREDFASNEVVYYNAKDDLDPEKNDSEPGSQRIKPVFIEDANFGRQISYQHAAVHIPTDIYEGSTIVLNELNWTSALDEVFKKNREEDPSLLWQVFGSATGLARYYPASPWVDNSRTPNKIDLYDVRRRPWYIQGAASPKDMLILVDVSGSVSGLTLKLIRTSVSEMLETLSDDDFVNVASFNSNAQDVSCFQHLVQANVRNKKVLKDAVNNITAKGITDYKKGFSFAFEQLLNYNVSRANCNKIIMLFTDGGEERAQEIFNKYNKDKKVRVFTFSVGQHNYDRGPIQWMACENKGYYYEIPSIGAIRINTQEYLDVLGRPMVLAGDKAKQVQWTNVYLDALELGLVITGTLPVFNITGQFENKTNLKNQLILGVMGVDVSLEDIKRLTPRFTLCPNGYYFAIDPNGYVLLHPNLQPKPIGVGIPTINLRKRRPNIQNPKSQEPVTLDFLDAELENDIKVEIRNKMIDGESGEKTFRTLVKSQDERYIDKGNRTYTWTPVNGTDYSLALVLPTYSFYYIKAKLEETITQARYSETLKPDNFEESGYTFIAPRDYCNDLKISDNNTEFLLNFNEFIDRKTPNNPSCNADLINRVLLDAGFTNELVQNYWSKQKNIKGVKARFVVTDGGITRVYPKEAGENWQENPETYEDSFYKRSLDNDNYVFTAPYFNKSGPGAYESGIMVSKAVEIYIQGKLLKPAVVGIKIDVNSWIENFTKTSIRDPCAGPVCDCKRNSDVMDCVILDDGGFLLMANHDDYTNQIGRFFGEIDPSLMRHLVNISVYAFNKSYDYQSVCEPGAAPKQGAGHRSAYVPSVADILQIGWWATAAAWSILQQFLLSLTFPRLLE
T1 sequence (P54289 957-1103 partner limits assumed): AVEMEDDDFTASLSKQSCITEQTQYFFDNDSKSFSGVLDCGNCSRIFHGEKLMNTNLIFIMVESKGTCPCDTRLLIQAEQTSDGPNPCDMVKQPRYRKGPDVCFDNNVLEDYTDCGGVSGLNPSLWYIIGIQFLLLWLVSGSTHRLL
Put plainly: Measurement of N-type Ca2+ channel blocking potencies in IMR32 cells using the fluorescent Ca2+ indicator Indo-1. The conditions noted are these: IMR-32 cells; for IC50: K+ depolarization, 5 μM nitrendipine to block L-type channels. It is filed as cell-based. On the procedure:
Measurement of N-type Ca^2+ Channel Blocking Potencies of Compounds in IMR32 Cells Using the Fluorescent Ca^2+ Indicator Indo-1
IMR-32 cells are a human tumoral cell line of neural origin. […] Calcium flux into these cells may be induced by stimulation with elevated potassium concentrations. The L-channel component of calcium flux may be blocked by adding 5 μM nitrendipine. The remaining component of calcium entry into the IMR-32 cells is due to calcium flux through N-type calcium channels. Intracellular calcium concentrations are measured using the fluorescent calcium indicator Indo-1. The effect of drug concentration on calcium uptake is studied.
The IMR-32 cell line was obtained from the American Type Culture Collection (Rockville, Md.). Cells were grown in Eagle's Minimum Essential Medium with Earle's salts supplemented with 10% fetal bovine serum, 2 mM L-Gln and antibiotic/antimicotic mixture (Gibco). At approximately 80% confluency, differentiation was induced by the addition of 1 mM dibutyryl cAMP and 2.5 μM bromodeoxyuridine to the medium. After 7 to 13 days of differentiation, cells were detached using 0.5 mM EDTA and loaded with 5 μM Indo-1 acetoxymethyl ester (Molecular Probes, Eugene, Oreg.) at […] for 45 minutes. Loaded cells were washed twice, resuspended (˜10^7 cells/mL) in assay buffer (10 mM HEPES/Tris pH 7.4 in Hank's Balanced Salt Solution without bicarbonate or phenol red containing 0.5% bovine serum albumin) and kept on ice until use. Fluorescence measurements were carried out in a Photon Technology International (PTI, South Brunswick, N.J.) Model RF-F3004 spectrofluorometer with dual emission monochromators using excitation at 350 nm and emission at 400 and 490 nm. The instrument was equipped with a thermostated cuvette holder with stirring capabilities as well as with a computer-controlled pump that allowed for reagent addition during measurement. Instrument control and data collection was done by PTI's OSCAR software running on an IBM compatible computer. Different concentrations of the test compounds (60 μL in dimethyl sulfoxide) were added to 5.94 mL of assay buffer containing approximately 3×10^6 loaded cells, and 5 μM Nitrendipine (in 30 μL EtOH) to block L-type Ca^2+ channels. Samples were incubated for 10 minutes at 30° C. and then aliquoted into three 10×10 mm disposable acrylic cuvettes. Emission signals at 400 and 490 nm were acquired from each cuvette at 30° C. for 50 seconds. At 20 seconds after the start of reading, cells were depolarized by the addition of 160 μL of stimulation solution (1M KCl, 68 mM CaCl2) to the cuvette via the computer-controlled pump. Ratio of dual emission signals (400 nm/490 nm), which is proportional to intracellular Ca^2+ concentration, was plotted against time, and the difference between maximal response after stimulation and basal value (before stimulation) was determined. Values obtained in this way were plotted as a function of drug concentration. IC50 values of test compounds were calculated by fitting a 4-parameter logistic function to the data using the least squares method.

Where [1] appears, read: 10 mg/kg IV, 15 minutes post treatment.
The mark [2] stands for this setting: 30 mg/kg IV, 15 minutes post treatment.
Where [3] appears, read: 30 mg/kg IV, 45 minutes post treatment.
Setting [4] is: 10 mg/kg IV, 15 minutes post treatment, dihydrochloride.
Where [5] appears, read: 10 mg/kg IV, 45 minutes post treatment, dihydrochloride.

Take `CC(C)C[C@H](NC(=O)N1CCCCCC1)C(=O)N[C@H](COC(C)(C)C)Cc1ccc(OCc2ccccc2)cc1` (relative stereo) [Example 1, [S-(R*,R*)]-Azepane-1-carboxylic acid {1-[2-(4-benzyloxy-phenyl)-1-tert-butoxymethyl-ethylcarbamoyl]-3-methyl-butyl}-amide]: the entries for the “Number of Mice Protected from Tonic Convulsions / number of mice tested” value in the data set on DBA/2 mice (setting [1]), in the data set on DBA/2 mice (setting [2]) and with DBA/2 mice (setting [3]) were 1/5, 4/5 and 2/5, respectively. In addition, the protection with DBA/2 mice is listed as 80%. For the same compound, the IC50 (usually the concentration at which inhibition is half-maximal) at N-type Ca2+ channel was found to be 210 nM.

Turning to `CC(C)C[C@@H](CN[C@@H](Cc1ccc(OCc2ccccc2)cc1)C(=O)NC(C)(C)C)NC(=O)N1CCCCCC1` (relative stereo) [Example 2, [S-(R*,R*)]Azepane-1-carboxylic acid (1-{[2-(4-benzyloxy-phenyl)-1-tert-butylcarbamoyl-ethylamino]-methyl}-3-methyl-butyl)-amide dihydrochloride salt], the “Number of Mice Protected from Tonic Convulsions / number of mice tested” value is on record as 1/5 in the data set with DBA/2 mice (setting [1]), 5/5 in the data set on DBA/2 mice (setting [2]) and 1/5 with DBA/2 mice (setting [3]). The same compound displayed a protection in the data set with DBA/2 mice of 100%. The compound also had an IC50 against N-type Ca2+ channel of 190 nM.

With `CC(C)C[C@@H](C(=O)N[C@@H](Cc1ccc(OCc2ccccc2)cc1)CN1CCOCC1)N(C)C` (relative stereo) [Example 3, [S-(R*,R*)]-2-Dimethylamino-4-methyl-pentanoic acid [2-(4-benzyloxy-phenyl)-1-morpholin-4-ylmethyl-ethyl]-amide], the melting point (usually the temperature of the solid-liquid transition) fell in the range of 113 to 114 °C. In addition, the “IMR32 % @ 1 μM” value at N-type Ca2+ channel (1 μM compound, 5 μM nitrendipine) stood at 6% @ 1 μM. Besides, the “IMR32 % @ 10 μM” value at N-type Ca2+ channel (10 μM compound, 5 μM nitrendipine) was 48% @ 10 μM.

At N-type Ca2+ channel, `CC(C)C[C@H](NC(=O)N1CCCCCC1)C(=O)N[C@@H](Cc1ccc(OCc2ccccc2)cc1)CN1CCOCC1` (relative stereo) [Example 4, [S-(R*,R*)]-Azepane-1-carboxylic acid {1-[2-(4-benzyloxy-phenyl) -1-morpholin-4-ylmethyl-ethylcarbamoyl]-3-methyl-butyl}-amide] came in with an IC50 of 1200 nM.

Regarding `CC(C)C[C@H](NC(=O)N1CCCCCC1)C(=O)N[C@H](CNC(C)(C)C)Cc1ccc(OCc2ccccc2)cc1` (relative stereo) [Example 5, [S-(R*,R*)]Azepane-1-carboxylic acid {1-[2-(4-benzyloxy-phenyl)-1-(tert-butylamino-methyl)-ethylcarbamoyl]-3-methyl-butyl}-amide trifloroacetate salt], the IC50 against N-type Ca2+ channel turned out to be 1100 nM.

With `CC(C)CC(N)CN[C@@H](Cc1ccc(OCc2ccccc2)cc1)C(=O)NC(C)(C)C` (single isomer, unassigned) [Example 7, dihydrochloride], the “Number of Mice Protected from Tonic Convulsions / number of mice tested” value in the data set on DBA/2 mice (setting [4]) is reported as 2/5; with DBA/2 mice (setting [5]), 1/5. The compound also returned a concentration for half-maximal inhibition (IC50) against N-type Ca2+ channel of 1200 nM.

In the case of `CC(C)CC(N)CN[C@@H](Cc1ccc(OCc2ccccc2)cc1)C(=O)NC(C)(C)C` (single isomer, unassigned) [Example 8, 2-(2-Amino-4-methyl-pentylamino)-3-(4-benzyloxy-phenyl)-N-tert-butyl-propionamide dihydrochloride], the “Number of Mice Protected from Tonic Convulsions / number of mice tested” value in the data set on DBA/2 mice (setting [4]) and with DBA/2 mice (setting [5]) was 0/5 each time. Besides, half-maximal inhibition against N-type Ca2+ channel (IC50) required 1000 nM.

On to `CCN(CC)C[C@H](Cc1ccc(OCc2ccccc2)cc1)NC(=O)[C@H](CC(C)C)NC(=O)N1CCCCCC1` [Example 6, (S,S)-Azepane-1-carboxylic acid {1-[2-(4-benzyloxy-phenyl)-1-diethylaminomethyl-ethylcarbamoyl]-3-methyl-butyl}-amide], for which the IC50 against N-type Ca2+ channel turned out to be 1100 nM.
